# Measurements taken from article PMC7251097, “Aspartate/asparagine-β-hydroxylase: a high-throughput mass spectrometric assay for discovery of small molecule inhibitors” (Scientific Reports, 2020).
# Where two headings read alike, the source gives them in different places.
# Molecular target: T1, His6-AspH315–758 (human aspartate/asparagine-β-hydroxylase, AspH) (Homo sapiens, UniProt Q12797)
# T1 construct: N-Terminally His6-tagged human AspH315–758 (His6-AspH315–758) was produced in E. coli BL21 (DE3) cells; made in house; host or cells: E. coli BL21 (DE3), pET-28a(+) vector
# T1 sequence (Q12797 315-758): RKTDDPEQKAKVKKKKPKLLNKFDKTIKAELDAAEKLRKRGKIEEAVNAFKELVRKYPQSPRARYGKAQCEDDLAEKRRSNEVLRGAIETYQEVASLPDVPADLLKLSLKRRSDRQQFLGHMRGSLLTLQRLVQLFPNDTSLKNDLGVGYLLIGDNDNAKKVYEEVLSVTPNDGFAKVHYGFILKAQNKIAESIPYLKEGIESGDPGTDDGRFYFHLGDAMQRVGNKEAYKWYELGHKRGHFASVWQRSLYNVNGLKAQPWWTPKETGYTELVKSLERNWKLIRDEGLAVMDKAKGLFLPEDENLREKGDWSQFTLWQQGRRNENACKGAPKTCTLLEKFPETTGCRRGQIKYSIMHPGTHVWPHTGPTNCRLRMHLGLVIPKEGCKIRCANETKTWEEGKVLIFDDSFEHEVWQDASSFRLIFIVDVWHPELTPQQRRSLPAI
# Assay: SPE-MS AspH inhibition assay (LOPAC screen at fixed 20 μM and IC50 dose-response), hydroxylation of cyclic peptide hFX-CP101–119
# Format: biochemical
# Settings: for Inhibition at 20 µM [%]: AspH activity, fixed compound concentration 20 μM, initial LOPAC screen, 0.5%v/v DMSO
# [1] = LOPAC compound at fixed 20 uM, plate 1, normalised to DMSO and 2,4-PDCA controls
# [2] = LOPAC compound at fixed 20 uM, substrate conversion, plate 1
# [3] = LOPAC compound at 20uM, plate 2, conversion of substrate peptide
# [4] = LOPAC compound at 20uM, plate 2, normalised to DMSO and 2,4-PDCA controls
# [5] = LOPAC compound at 20uM, plate 3, conversion of substrate peptide
# [6] = LOPAC Plate 4, compound at 20 uM, substrate conversion
# [7] = LOPAC Plate 4, compound at 20 uM
smiles,measurement,setting,value
CC1CCN=C(N)S1.Cl (racemic) [(±)-AMT hydrochloride],Plate 1 (% conversion),,36.89%
same,Plate 1 (% inhibition),,-3.04%
NCC(CC(=O)O)c1ccc(Cl)cc1 (racemic) [(±)-Baclofen],Plate 1 (% inhibition),[1],-1.99%
same,Plate 1 (% conversion),[2],36.54%
COC(=O)C1=C(C)NC(C)=C([N+](=O)[O-])C1c1ccccc1C(F)(F)F (racemic) [(±)-Bay K 8644],Plate 1 (% inhibition),[1],-22.02%
same,Plate 1 (% conversion),[2],43.27%
CN(C)CCC(c1ccc(Br)cc1)c1ccccn1.O=C(O)/C=C\C(=O)O (racemic) [(±)-Brompheniramine maleate],Plate 1 (% inhibition),[1],8.96%
same,Plate 1 (% conversion),[2],32.86%
CC(C)(C)NCC(O)COc1cccc2[nH]c(=O)[nH]c12.Cl (racemic) [(±)-CGP-12177A hydrochloride],Plate 2 (% conversion),[3],36.58%
same,Plate 2 (% inhibition),[4],-1.88%
"Br.C=CCN1CCc2c(cc(O)c(O)c2Cl)C(c2ccccc2)C1 (racemic) [(±)-Chloro-APB hydrobromide, reference compound]",Inhibition at 20 µM [%],,95.8%
same,Plate 2 (% conversion),[3],3.87%
same,Plate 2 (% inhibition),[4],95.82%
CN(C)CCC(c1ccc(Cl)cc1)c1ccccn1.O=C(O)/C=C\C(=O)O (racemic) [(±)-Chlorpheniramine maleate],Plate 1 (% inhibition),[1],-6.31%
same,Plate 1 (% conversion),[2],37.99%
CNCC(O)c1ccc(O)c(O)c1.Cl (racemic) [(±)-Epinephrine hydrochloride],Plate 2 (% conversion),[3],6.18%
same,Plate 2 (% inhibition),[4],88.94%
NC1CCN(O)C1=O (racemic) [(±)-HA-966],Plate 1 (% conversion),,36.52%
same,Plate 1 (% inhibition),,-1.94%
COCCc1ccc(OCC(O)CNC(C)C)cc1.O=C(O)C(O)C(O)C(=O)O (racemic) [(±)-Metoprolol (+)-tartrate],Plate 3 (% conversion),[5],16.57%
O=C(O)C1CCCNC1 (racemic) [(±)-Nipecotic acid],Plate 1 (% conversion),,30.40%
same,Plate 1 (% inhibition),,16.29%
NC[C@H](O)c1ccc(O)c(O)c1.O=C(O)C(O)C(O)C(=O)O (racemic) [(±)-Norepinephrine (+)bitartrate],Plate 1 (% inhibition),[1],92.57%
same,Plate 1 (% conversion),[2],4.78%
CN1CCN(C2Cc3ccccc3Sc3ccc(Cl)cc32)CC1.O=C(O)/C=C\C(=O)O (racemic) [(±)-Octoclothepin maleate],Plate 3 (% conversion),,45.22%
CCCN(CCc1ccccc1)C1CCc2c(O)cccc2C1.Cl (racemic) [(±)-PPHT hydrochloride],% conversion,[6],27.49%
CC(C)NCC(O)COc1cccc2ccccc12.Cl (racemic) [(±)-Propranolol hydrochloride],Plate 3 (% conversion),,40.68%
"Br.C=CCN1CCc2cc(O)c(O)cc2C(c2ccccc2)C1 (racemic) [(±)-SKF 38393, N-allyl-, hydrobromide]",% conversion,,11.46%
same,% inhibition,20 µM,73.28%
Cl.Oc1cc2c(cc1O)C(c1ccccc1)CNCC2 (racemic) [(±)-SKF-38393 hydrochloride],Plate 2 (% conversion),,10.11%
same,Plate 2 (% inhibition),20 µM,77.21%
CC(C)NCC(O)c1ccc(NS(C)(=O)=O)cc1.Cl (racemic) [(±)-Sotalol hydrochloride],% inhibition,[7],-12.79%
same,% conversion,[6],40.83%
CCN1CCCC1CNC(=O)c1cc(S(N)(=O)=O)ccc1OC (racemic) [(±)-Sulpiride],% inhibition,[7],-0.19%
same,% conversion,[6],36.54%
CNCC(O)c1ccc(O)cc1 (racemic) [(±)-Synephrine],% conversion,,25.88%
"O=C1c2c(O)cc(O)cc2O[C@H](c2ccc(O)c(O)c2)[C@H]1O (racemic) [(±)-Taxifolin, reference compound]",Inhibition at 20 µM [%],,97.5%
same,% conversion,[6],3.21%
O=C1CCC(N2C(=O)c3ccccc3C2=O)C(=O)N1 (racemic) [(±)-Thalidomide],% inhibition,[7],-5.00%
same,% conversion,[6],38.18%
COc1cc(C(O)C(=O)O)ccc1O (racemic) [(±)-Vanillylmandelic acid],Plate 2 (% conversion),[3],32.67%
same,Plate 2 (% inhibition),[4],9.80%
COc1ccc(CCN(C)CCCC(C#N)(c2ccc(OC)c(OC)c2)C(C)C)cc1OC.Cl (racemic) [(±)-Verapamil hydrochloride],% conversion,,42.64%
same,% inhibition,20 µM,-18.08%
Cl.OC1CCCCC1N1CCC(c2ccccc2)CC1 (racemic) [(±)-Vesamicol hydrochloride],% conversion,,40.91%
same,% inhibition,20 µM,-13.00%
O=C(O)CCCCC1CCSS1 (racemic) [(±)-alpha-Lipoic Acid],% inhibition,[7],5.35%
same,% conversion,[6],34.64%
"O=C(O)[C@H]1CCCN[C@H]1C(=O)O (racemic) [(±)-cis-Piperidine-2,3-dicarboxylic acid]",% conversion,,39.41%
same,% inhibition,20 µM,-8.61%
C=CC(N)CCC(=O)O (racemic) [(±)-gamma-Vinyl GABA],% conversion,[6],37.96%
CCC1(c2ccc(N)cc2)CCC(=O)NC1=O (racemic) [(±)-p-Aminoglutethimide],Plate 1 (% conversion),,34.85%
same,Plate 1 (% inhibition),,3.03%
NC(Cc1ccc(Cl)cc1)C(=O)O (racemic) [(±)-p-Chlorophenylalanine],Plate 1 (% inhibition),[1],-1.40%
same,Plate 1 (% conversion),[2],36.34%
COC(=O)C1=C(C)NC(C)=C(C(=O)O[C@@H]2CCCN(Cc3ccccc3)C2)[C@@H]1c1cccc([N+](=O)[O-])c1.Cl (racemic) [Benidipine hydrochloride],Plate 2 (% conversion),[3],31.43%
same,Plate 2 (% inhibition),[4],13.51%
"CCCCS(=N)(=O)CCC(N)C(=O)O (racemic) [DL-Buthionine-[S,R]-sulfoximine]",Plate 1 (% conversion),,34.26%
same,Plate 1 (% inhibition),,4.80%
N[C@@H]1CONC1=O (racemic) [DL-Cycloserine],Plate 1 (% inhibition),[1],-17.16%
same,Plate 1 (% conversion),[2],41.64%
O=C(O)CNC(=O)C(CS)Cc1ccccc1 (racemic) [DL-Thiorphan],% conversion,,36.55%
same,inhibition at 20 µM,,-0.22%
CC(N)(Cc1ccc(O)cc1)C(=O)O (racemic) [DL-alpha-Methyl-p-tyrosine],Plate 1 (% conversion),,33.46%
same,Plate 1 (% inhibition),,7.19%
CCCCCCCCCCCCCCC[C@H](O)[C@H](N)CO (racemic) [DL-erythro-Dihydrosphingosine],Plate 2 (% conversion),[3],62.82%
same,Plate 2 (% inhibition),[4],-80.23%
CCN1CCC[C@H]1CNC(=O)c1c(O)c(Cl)cc(Cl)c1OC.O=C(O)C(O)C(O)C(=O)O (racemic) [S(+)-Raclopride L-tartrate],% conversion,[6],11.56%
CN(C)C[C@H](O)Cn1c2ccc(Br)cc2c2cc(Br)ccc21 (racemic) [Wiskostatin],% conversion,[6],31.93%
Br.CCCN1CCC2c3cc(O)ccc3CCC21 (racemic) [cis(+/-)-8-OH-PBZI hydrobromide],Plate 3 (% conversion),[5],33.20%
CC(C)(C)c1cc(C(C)(C)C)c2c(c1)C(O)(C(F)(F)F)C(=O)O2 (racemic) [rac BHFF],% inhibition,[7],72.02%
same,% conversion,[6],11.89%
"COc1ccc2c(c1OC)C(=O)OC2C1c2cc3c(cc2CCN1C)OCO3 (single isomer, unassigned; (+)) [(+)-Hydrastine]",Plate 2 (% conversion),,38.28%
same,inhibition at 20 µM,read-out: Plate 2 (% inhibition),-6.94%
"CC(N)Cc1cccc(C(F)(F)F)c1.Cl (single isomer, unassigned; (+)) [(+)-Norfenfluramine hydrochloride]",% conversion,,26.61%
"CC(C)NCC(O)c1ccc(O)c(O)c1.Cl (single isomer, unassigned; (-)) [(-)-Isoproterenol hydrochloride]",Plate 3 (% conversion),[5],6.03%
"Br.CN1[C@@H]2CC(OC(=O)[C@H](CO)c3ccccc3)C[C@H]1[C@@H]1O[C@@H]12 (single isomer, unassigned; (-)) [(-)-Scopolamine hydrobromide]",% inhibition,20 µM,-9.71%
"C[N+]1(C)[C@@H]2CC(OC(=O)[C@H](CO)c3ccccc3)C[C@H]1[C@@H]1O[C@@H]12.O=[N+]([O-])[O-] (single isomer, unassigned; (-)) [(-)-Scopolamine methyl nitrate]",% conversion,,25.39%
"CC(N)C(O)c1ccc(O)c(O)c1 (single isomer, unassigned; (-)) [(-)-alpha-Methylnorepinephrine]",Plate 2 (% conversion),,7.36%
same,Plate 2 (% inhibition),20 µM,85.40%
Nc1nc(Cl)nc2c1ncn2[C@@H]1O[C@H](COP(=O)(O)OP(=O)(O)OP(=O)(O)O)C(O)C1O (stereo in doubt),Plate 2 (% conversion),[3],11.93%
same,Plate 2 (% inhibition),[4],71.75%
Nc1ncnc2c1nc(Sc1ccc(Cl)cc1)n2C1OC2COP(=O)(O)OC2C1O (stereo in doubt) [8-(4-Chlorophenylthio)-cAMP sodium],Plate 1 (% inhibition),[1],-2.91%
same,Plate 1 (% conversion),[2],36.85%
CCCCC1(C2CCCC2)Cc2cc(OCC(=O)O)c(Cl)c(Cl)c2C1=O (stereo in doubt) [R(+)-Butylindazone],Plate 2 (% conversion),[3],33.18%
same,Plate 2 (% inhibition),[4],8.29%
"Cn1c(=O)c2[nH]c(-c3ccccc3)nc2n(C)c1=O [1,3-Dimethyl-8-phenylxanthine]",Plate 3 (% conversion),[5],35.64%
